The values below come from patent publication US20180133211A1, “METHODS AND MATERIALS FOR PROMOTING BONE FORMATION” (Mayo Foundation for Medical Education and Research, priority 2015, published 2018).

In data set [1] the test system is RAW 264.7 cells. The data set is described as follows: Global cytosine 5-hydroxymethylation (5hmC). Type of data set: cell-based, mouse. The conditions noted are these: RAW 264.7, 3 μM, 16 hours. The method, then: (§1) Cells were fixed with 4% paraformaldehyde in PBS for 20 minutes at room temperature and permeabilized with 0.2% triton in 4% paraformaldehyde in PBS. Thereafter, cell layers were blocked for 20 minutes with 10% blocking reagent (Roche) and incubated for one further hour with 0.5 μg/mL anti-5hmC antibody (Abgent). Afterwards, the cells were washed thrice with PBS and incubated for one further hour with an Alexa488 labeled secondary antibody (Invitrogen) diluted 1:300 in blocking buffer. Finally, nuclei were stained with Hoechst 33258 dye (Polysciences).
(§2) For immunostaining, cell slides were mounted with VECTASHIELD® mounting media, and immunofluorescence was visualized on a Leica laser-scanning microscope. No signal was found by using only the Alexa488 labeled secondary antibody (Invitrogen). For quantification of global cytosine 5hmC, the fluorescence in the plates was measured with a multiwell plate reader (Tecan). The amount of DNA (nuclei signal) was estimated using a standard curve prepared from calf thymus DNA (Roche). The signal of the fluorescence of the 5hmC staining was normalized to the amount of DNA. Also, in this case, no signals were found when only the Alexa488 labeled secondary antibody (Invitrogen) was used.

Data set [2] relates to MLO-Y4 cells. Nature of the data set: Global cytosine 5-hydroxymethylation (5hmC). The format is cell-based, mouse. The conditions noted are these: MLO-Y4, 3 μM, 16 hours. As for the experimental part:
as §1, §2

Data set [3] deals with MC3T3-E1 cells. Nature of the data set: Global cytosine 5-hydroxymethylation (5hmC). Type of data set: cell-based, mouse. The conditions noted are these: MC3T3-E1, 3 μM, 16 hours. The method, then: as §1, §2
Data set [4] relates to MC3T3-E1 cells. The data set is described as follows: ECM mineralization by Alizarin Red stain. Type of data set: cell-based, mouse. The conditions noted are these: MC3T3-E1, long-term treatment in osteogenic media. The method, then:
Differentiation of MC3T3-E1 cells was induced with 50 μg/mL ascorbic acid (Sigma-Aldrich) and 5 mM β-glycerophosphate (Sigma-Aldrich) in medium containing 5% FBS. RAW 264.7 cells were cultured in Dulbecco's modified Eagle's medium (DMEM, Invitrogen, Carlsbad, Calif., USA) supplemented with 10% fetal bovine serum (Hyclone) and 2 mM glutamine (Gibco, Carlsbad, Calif., USA). Cells were seeded in culture dishes at a density of 20,000 cells/cm^2 and cultured overnight unless stated otherwise. Before cells were treated with compounds, the culture medium was changed.
Calvariae from 2 to 3-day-old and from 7-week old C57BL/6 mice were dissected aseptically. The calvarial bone explants were cultured in 48-well plates in α-MEM (Biochrom) containing 10% FCS (Biochrom), 50 μg/mL ascorbic acid (Sigma-Aldrich), 5 mM β-glycerophosphate (Sigma-Aldrich), and 10 μg/mL gentamicin (Sigma-Aldrich). The day after dissection, medium was changed, and a part of the explants was treated with 3 μM L- or DL-SFN for 12 days. Thereafter, one part of the calvariae were fixed for 1 hour in 4% para-formaldehyde (PFA), and mineralization was measured by Alizarin Red S stain (Sigma-Aldrich). For this purpose, Alizarin Red S dye was extracted using 10% cetylpyridinium chloride (CPC) in 10 mM sodiumphosphate (pH=7.0) for 45 minutes at room temperature. Alizarin Red S absorbance was measured at 562 nm in a multi-plate reader (Tecan, Maennedorf, Switzerland) and normalized to total protein amount measured by bicinchoninic acid assay (Thermo Fisher Scientific, Waltham, Mass., USA). From the other part of the calvariae, total RNA was extracted.

Data set [5] deals with RAW 264.7 cells. Nature of the data set: Cell metabolic activity (EZ4U, MTT similar assay). The format is cell-based, mouse. The conditions noted are these: read-out: half-maximal effective concentration (EC50), cell metabolic activity. As for the experimental part: (§3) To assess cell metabolic activity, a commercially available, MTT similar assay (EZ4U; Biomedica, Vienna, Austria) was used. For this purpose, the cell lines were incubated with increasing concentrations of L- or DL-SFN.
On the technique in general: Tetrazolium assays rely on reduction of a dye to a coloured formazan, in cell work by metabolically active cells.

Data set [6] concerns MLO-Y4 cells. The data set is described as follows: Cell metabolic activity (EZ4U, MTT similar assay). The format is cell-based, mouse. The settings on record: 24 hours of treatment, read-out: half-maximal effective concentration (EC50), cell metabolic activity. The method, then:
as §3

The test system of data set [7] is MC3T3-E1 cells. Nature of the data set: Cell metabolic activity (EZ4U, MTT similar assay). The format is cell-based, mouse. The conditions noted are these: 24 hours of treatment, read-out: half-maximal effective concentration (EC50), cell metabolic activity. The method, then:
as §3

A short description of data set [8]: Tolerability of DL-SFN injections in mice. Type of data set: in vivo, mouse. The conditions noted are these: 7.5 mM DL-SFN, 200 μL intraperitoneally every other day for five weeks. As for the experimental part: Analysis of SFN on mice was performed using a protocol similar to that described elsewhere (Kong et al., Arthritis Rheum., 62:159-170 (2010)). In the experimental setting herein, eight week old sham operated or ovariectomized (OVX) C57B16/J female mice were purchased from Charles River laboratories. Mice were injected with 7.5 mM DL-SFN (200 μL of SFN at a concentration of 63.8 mg/mL/kg dissolved in ethanol and further diluted in PBS) intraperitoneally every other day for five weeks. Control mice received vehicle alone.

The subject of data set [9] is BMSCs. Nature of the data set: RT-qPCR mRNA expression. The format is cell-based, mouse. As for the experimental part:
Mouse bone marrow mesenchymal stem cells were isolated from aseptically dissected long bones of 6-week old C57BL/6 mice (Himberg, Austria). The marrow cavities were flushed with sterile medium using a 25-gauge needle, and the culture was established in α-MEM supplemented with 10% FCS and […]. After 48 hours of culture at 5% CO2 and 37° C., the non-adherent cells were removed by gentle rinsing with PBS. At confluence, cells were harvested and seeded at a density of 3,000/cm^2 for cell experiments. […]
Total RNA was extracted using the SV Total RNA Isolation kit (Promega) following the supplier's instructions. cDNA was synthesized from about 0.5 μg RNA using the First Strand cDNA Synthesis kit (Roche) as described by the supplier. The resulting cDNAs were subjected to quantitative PCR amplification with a real-time cycler using the QUANTITECT™ SYBR® Green PCR Kit (Qiagen, Hilden, Germany) for the genes Alpl, Fas, Lox, Tet1, Tet2, and TAQMAN® Gene expression Master Mix (Applied Biosystems, Foster City, Calif., USA) for measuring Runx2, Bglap2, Colla1, Tnfsf11, and 18S rRNA expression (for primers, see Table 1). […] All RT-qPCR assays were performed in triplicate, and expression was evaluated using the comparative quantification method (Pfaffl, Nucleic Acids Res., 29:e45 (2001)).
A general note: Quantitative PCR measures a nucleic acid by following its amplification.

With `C[S+]([O-])CCCCN=C=S` [L-SFN], in [1], the “increase of global levels of 5hmC” value is < 2 fold. Further, the 5hmC levels result in data set [2] is “did not elevate”. In data set [3], the “global 5hmC” value is listed as “significant global increase”. The ECM mineralization entry in data set [4] was “significantly increased”. In addition, the EC50 is ~10.1 µM in [5], ~11 µM in [6] and ~48 µM in data set [7].
Consider `C[S+]([O-])CCCCN=C=S` (racemic) [DL-SFN], for which the “increase of global levels of 5hmC” value in data set [1] is reported as ~3 fold. Besides, in [2], the 5hmC levels entry was “did not elevate”. Further, in [3], the “global 5hmC” value is “significant global increase”. The ECM mineralization entry in [4] was “significantly increased”. Also, the EC50 in data set [5] was ~6.01 µM; in [6], ~6 µM; in data set [7] it was ~13 µM. Moreover, the “apparent adverse effects (weight loss, physical appearance, behavior)” value in [8] is on record as “did not show apparent adverse effects”. In addition, in data set [9], the “Bglap2 mRNA expression” value is reported as “up regulated”. For the same compound, the “Runx2 mRNA expression” value in [9] (3 μM) is listed as “stimulates”.
